The term IC50 denotes the concentration that inhibits the measured activity by half.

Series [1] can be described thus: Stability in Simulated Gastric Fluid (SGF). Format: in vitro ADME. As to conditions: SGF pH 1.6 with pepsin, 1 μM, 37° C. On the procedure:
Stability of acylated active agents in Simulated Gastric Fluid (SGF). This assay was used to assess the stability of an acylated active agent in a stomach.
Medium was prepared by dissolving 2 g of sodium chloride in 0.6 L in ultrapure water (MilliQ®, Millipore Sigma, Darmstadt, Germany). The pH was adjusted to 1.6 with 1N hydrochloric acid, and the volume was then adjusted to 1 L with purified water.
60 mg FaSSIF powder (Biorelevant™, London, UK) were dissolved in 500 mL buffer (above). Pepsin was added (0.1 mg/mL) (Millipore Sigma, Darmstadt, Germany), and the solution was stirred. The resulting SGF media were used fresh for each experiment.
Test compounds were dissolved in DMSO stock to 1 mM. An aliquot of the DMSO stock solution was removed and diluted in the SGF Media in 15 mL falcon tubes to generate a total compound concentration of 1 μM. A 1 mL aliquot was immediately removed and diluted once with 1 volume of acetonitrile for T0 timepoint. The mixture was sealed and mixed at 37° C. in an incubator. Aliquots (1 mL) were removed at regular intervals and immediately quenched by the addition of 1 volume of acetonitrile. The resulting samples were analyzed by LC/MS to determine degradation rates

Series [2] relates to Daudi lymphoma cancer cells. The series is described as follows: Cancer cell survival (CellTiter-Glo), Daudi. Format: cell-based. As to conditions: 72 h. Summed up:
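Daudi cells (4×10^3/well) were exposed for 72 h at 37 °C to nine concentrations of compound, added as 10× solutions spanning 1 μM–10 mM (fatty acids) or 100 nM–1 mM (others). CellTiter-Glo luminescence gave % survival versus untreated, medium-blank corrected; IC50 derived.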

Series [3] has as its system AGS stomach cancer cells. The experiment in a line: Cancer cell survival (CellTiter-Glo), AGS. Type of series: cell-based. The arrangement: Cell survival at given concentration: unit not given here. A digest of the protocol:
(§1)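 Cells seeded at 4×10^3 cells/well, incubated overnight, then treated in triplicate at nine concentrations for 72 h at 37 C, 5% CO2. Viability by CellTiter-Glo luminescence, survival % normalized to untreated and medium controls; IC50 derived.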
In general terms: ATP-based viability assays read luminescence as a measure of living cells.

Series [4] deals with HCT 116 colorectal cancer cells. The experiment in a line: Cancer cell survival (CellTiter-Glo), HCT 116. The settings on record: HCT 116 cells, 72 h. Type of series: cell-based. A digest of the protocol:
as §1

Series [5] concerns PC-3 prostate cancer cells. The experiment in a line: Cancer cell survival (CellTiter-Glo), PC-3. Type of series: cell-based. As to conditions: PC-3 cells, 72 h. Summed up: as §1
Series [6] deals with A549 lung cancer cells. The series is described as follows: Cancer cell survival (CellTiter-Glo), A549. Type of series: cell-based. As to conditions: 72 h. Summed up: as §1
For series [7], the system named is MCF7 breast cancer cells. The experiment in a line: Cancer cell survival (CellTiter-Glo), MCF7. Format: cell-based. As to conditions: 72 h. Summed up:
as §1

In series [8] the test system is A-431 skin cancer cells. The series is described as follows: Cancer cell survival (CellTiter-Glo), A-431. Format: cell-based. The arrangement: Cell survival at given concentration: unit not given here. As to conditions: A-431 cells, 72 h. Summed up: as §1
The test system of series [9] is T24 bladder cancer cells. The series is described as follows: Cancer cell survival (CellTiter-Glo), T24. Format: cell-based. The settings on record: 72 h. A digest of the protocol: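 T24 cells seeded at 4×10^3 cells/well overnight, then exposed 72 h at 37 C, 5% CO2 to nine concentrations in triplicate. Survival measured by CellTiter-Glo luminescence relative to untreated and medium controls; IC50 derived.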

The structures appear in SMILES notation. Where only a bound is given, the exact number is not on record here.

With `CC(=O)Oc1ccc(-c2oc3cc(OC(C)=O)cc(OC(C)=O)c3c(=O)c2OC(C)=O)cc1` [Compound 8, [4-(3,5,7-triacetoxy-4-oxo-chromen-2-yl)phenyl] acetate], the “Assay 1 (SGF) (% Remaining @ 1 hours)” value in [1] was “C (>75% of the tested compound remaining)”.

`CC(=O)Oc1cc(OC(C)=O)c2c(=O)c(OC(C)=O)c(-c3cc(OC(C)=O)c(OC(C)=O)c(OC(C)=O)c3)oc2c1` [Compound 11, [3,5-diacetoxy-4-oxo-2-(3,4,5-triacetoxyphenyl)chromen-7-yl] acetate]: in series [1], the “Assay 1 (SGF) (% Remaining @ 1 hours)” value was “C (>75% of the tested compound remaining)”.

Regarding `CCC(=O)Oc1cc(OC(=O)CC)c2c(c1)O[C@H](c1cc(OC(=O)CC)c(OC(=O)CC)c(OC(=O)CC)c1)[C@H](OC(=O)c1cc(OC(=O)CC)c(OC(=O)CC)c(OC(=O)CC)c1)C2` [Compound 15, [(2R,3R)-5,7-di(propanoyloxy)-2-[3,4,5-tri(propanoyloxy)phenyl]chroman-3-yl] 3,4,5-tri(propanoyloxy)benzoate], the “Assay 1 (SGF) (% Remaining @ 1 hours)” value in [1] is on record as “C (>75% of the tested compound remaining)”.

Consider `CCCC(=O)O[C@H](C)CCOC(=O)C[C@@H](C)OC(=O)CCC` [Compound 23, (R)-3-(butyryloxy)butyl (R)-3-(butyryloxy)butanoate], for which the “Assay 1 (SGF) (% Remaining @ 1 hours)” value in series [1] was “C (>75% of the tested compound remaining)”.

For the compound `CCCCC(=O)O` [valerate], the “Cell survival at given concentration” value in series [2] (1 μM, Table 4.2) worked out at 0.99; in series [2] (3 μM, Table 4.2), 0.98; in [2] (10 μM, Table 4.2) it was 0.98; in series [2] (32 μM, Table 4.2) it was 1.01; in series [2] (100 μM, Table 4.2) it was 0.95; in [2] (317 μM), 0.91. The “Cell survival at given concentration” value in [2] (1 mM) is listed as 0.76; in series [2] (3 mM) it was 0.39; in series [2] (10 mM), 0.12; in series [3] (1 μM, Table 10.2), 1.03; in series [3] (3 μM, Table 10.2), 1.03; in series [3] (10 μM, Table 10.2) it was 1.04. Also, the “Cell survival at given concentration” value came to 1.03 in series [3] (32 μM, Table 10.2); 1.05 in series [3] (100 μM, Table 10.2); 1.06 in [3] (317 μM); 1.06 in [3] (1 mM); 0.97 in series [3] (3 mM); 0.63 in series [3] (10 mM). Further, the “Cell survival at given concentration” value in series [4] (1 μM, Table 6.2) is 0.99; in [4] (3 μM, Table 6.2) it was 0.99; in series [4] (10 μM, Table 6.2), 1.04; in [4] (32 μM, Table 6.2), 1.00; in [4] (100 μM, Table 6.2) it was 1.01; in [4] (317 μM) it was 0.99. Also, the “Cell survival at given concentration” value in series [4] (1 mM) was 0.90; in [4] (3 mM), 0.60; in [4] (10 mM), 0.17; in series [5] (1 μM, Table 8.2), 1.00; in [5] (3 μM, Table 8.2), 0.99; in series [5] (10 μM, Table 8.2), 1.02. In addition, the “Cell survival at given concentration” value in [5] (32 μM, Table 8.2) is on record as 1.01; in series [5] (100 μM, Table 8.2) it was 1.04; in [5] (317 μM), 0.97; in series [5] (1 mM), 0.94; in [5] (3 mM), 0.84; in series [5] (10 mM), 0.69. The “Cell survival at given concentration” value was 0.98 in series [6] (1 μM, Table 7.2); 1.00 in [6] (3 μM, Table 7.2); 1.01 in series [6] (10 μM, Table 7.2); 0.97 in series [6] (32 μM, Table 7.2); 1.04 in series [6] (100 μM, Table 7.2); 1.02 in [6] (317 μM). Further, the “Cell survival at given concentration” value amounted to 0.98 in series [6] (1 mM); 0.87 in series [6] (3 mM); 0.62 in series [6] (10 mM); 1.00 in [7] (1 μM, Table 5.2); 1.02 in [7] (3 μM, Table 5.2); 1.01 in series [7] (10 μM, Table 5.2). The “Cell survival at given concentration” value is recorded as 0.97 in [7] (32 μM, Table 5.2); 1.00 in [7] (100 μM, Table 5.2); 0.96 in [7] (317 μM); 0.94 in [7] (1 mM); 0.76 in series [7] (3 mM); 0.50 in series [7] (10 mM). Moreover, the “Cell survival at given concentration” value in series [8] (1 μM, Table 9.2) is 1.01; in series [8] (3 μM, Table 9.2) it was 1.01; in series [8] (10 μM, Table 9.2), 1.02; in [8] (32 μM, Table 9.2) it was 1.02; in series [8] (100 μM, Table 9.2), 1.02; in series [8] (317 μM), 1.03. Besides, the “Cell survival at given concentration” value was 0.98 in [8] (1 mM); 0.89 in series [8] (3 mM); 0.71 in series [8] (10 mM); 1.00 in [9] (1 μM, Table 3.2); 1.01 in series [9] (3 μM, Table 3.2); 1.01 in series [9] (10 μM, Table 3.2). For the same compound, the “Cell survival at given concentration” value in [9] (32 μM, Table 3.2) turned out to be 0.98; in series [9] (100 μM, Table 3.2), 0.98; in series [9] (317 μM), 0.92; in series [9] (1 mM) it was 0.89; in series [9] (3 mM), 0.79; in series [9] (10 mM), 0.60. The concentration for half-maximal inhibition (IC50) in series [2] (Table 4.2) was 2.3 mM; in [4] (Table 6.2) it was 4.07 mM; in series [5] (Table 8.2) it was > 10 mM; in series [6] (Table 7.2) it was > 10 mM; in series [7] (Table 5.2), > 10 mM; in [9] (Table 3.2, read-out: IC50), > 10 mM.
